Test results published in US12053465B2, “KCC2 expression enhancing compounds and uses thereof” (Whitehead Institute for Biomedical Research, priority 2017, dated 2024).

What was measured:
KCC2 expression [1] = experiment: Western blot of KCC2 in cultured WT human neurons; type: cell-based
immature mouse neurons = experiment: Gramicidin-perforated patch recording of EGABA in DIV6-7 immature mouse neurons; type: cell-based
KCC2 expression [2] = experiment: Western blot of KCC2 in cultured human RTT neurons; type: cell-based; details: cultured human RTT neurons; Western blot
Method: Protein samples were collected from cultured brain slices or cultured neurons in 12-well format with RIPA lysis buffer (in mM: 150 NaCl, 25 Tris-HCl, 1 EDTA, 1% NP-40, 1% sodium deoxycholate, 0.1% SDS, with protein kinase inhibitor and protease inhibitor, pH adjusted to 7.6). A sonication step was applied to homogenize tissue and extract protein, followed by a 10 minute centrifugation at 4° C. […] The PVDF membrane was blocked for 30 minutes with 5% milk in TBS+0.1% Tween 20 (TBST), and incubated overnight at 4° C. with primary antibodies diluted in TBST-milk at the following concentrations: KCC2 (1:2000, Millipore), NKCC1 (1:1000, Iowa Hybridoma bank), α-Tubulin (1:4000, Abcam), GAPDH (1:3000, Abcam), Actin (1:2000, Sigma Aldrich #A2066). The membrane was rinsed with TBST three times to wash off excess antibodies, and then incubated in secondary HRP antibodies in TBST-milk at 1:5000 concentration.
The PVDF membrane was then stripped using the Re-blot plus strong solution (Millipore), and re-immunoblotted for NKCC1 (˜150 kDa) to acquire KCC2/NKCC1 ratio. The area and intensity of protein signal was determined using ImageJ. The relative KCC2 and NKCC1 expression were calculated by normalizing protein signal to GAPDH or Tubulin loading control.

[3] = system: KCC2 expression (KCC2-2A-luciferase reporter); experiment: KCC2-2A-luciferase reporter compound screening with RTT KCC2 reporter neurons; type: cell-based, human; details: MECP2-null RTT human KCC2 reporter neurons; LINCS, SMART, ICCB libraries; Luc/CTG normalized to in-plate DMSO; hit = B score >3
Method: The RTT KCC2-2A-luciferase reporter neurons were treated with the test compounds from the LINCS kinase inhibitor library and IRSF SMART compound library and incubated before being lysed. The cell lysate was divided into two parts to measure luciferase signal (KCC2 translation) and Cell-Titer Glow (CTG, amount of ATP). The luciferase signal was normalized to CTG for each well, and the Luc/CTG ratio was normalized to the in-plate DMSO negative control to calculate fold change ratio.
Additional screens for reporter activation in the MECP2-null RTT human KCC2 reporter neurons (isogenic to the WT reporter cells used above) were performed with the LINCS and SMART libraries as well as the ICCB known bioactive library and identified hits as compounds with B score >3.
The cells were dissociated with Accutase and resuspended in 10 ml neuronal differentiation medium to count cells. The cells were then diluted to the final density of 200,000 to 500,000 cells/ml. Matrigel was added to the cell suspension at a dilution ratio of 1:300 to promote cell adhesion after plating. AraC was added to cell suspension at the concentration of 2 μM to inhibit cell division. The cells were plated into 96-well plates with an automated cell seeding machine using the following protocol: The neuron flask was washed with PBS. The neurons were digested off the plate with Accutase for 30 minutes at 37° C. Next, the dissociated cells were collected and spun down at 750 rpm for 5 minutes. The cell pellet was dissociated by gentle trituration with P1000 pipet and the cells were resuspended with 10 ml of neuronal medium. Then, the cells were filtered through a 40 μm cell strainer (Falcon) to get rid of clumps. The resulting single-cell suspension was counted using a Countess automated cell counter (Invitrogen Countess Automated Cell Counter, Catalog no. C10227). The neurons were resuspended with neuronal medium to 10× of the destination density (100,000 cells to 400,000 cells per ml). The cells were plated with a multichannel pipette, or proceeded to the machine-plating protocol described below:
The day after cell seeding, small molecule compounds from the IRSF (International Rett Syndrome Foundation) library were prepared at a concentration of 1 mM and dispensed into a blank V-bottomed test plates at 2 μl per well. Compound solvent DMSO was included in every plate as control. Using a liquid handling robot, about 80 μl of culture medium were discarded. Neuronal medium in the volume of 200 μl was added to the V-bottom test plate that contained 2 μl of 1 mM compounds, and mixed with compounds by pipetting up-and-down 3 times. The medium that contained the 10 μM compounds was then applied to the neuronal cell culture and incubated for 2 weeks before cell lysis and luciferase assay were performed.
(§1) The cells were dissociated with Accutase, resuspended in 10 ml neuronal differentiation medium to count cells. the final cell seeding density was 20 k-40 k cells per well for 96-well plates, and ˜10 k cells per well for 384-well plates. Matrigel was added to the cell suspension at a dilution ratio of 1:300 to promote cell adhesion after plating. AraC were added to the cell suspension at the concentration of 0.5 μM to inhibit astroglial cell division. The cells were dispensed into 96-well or 384-well plates (Coming) using a BioTek EL406 plate dispenser. […] The neurons were incubated with the compounds at 37° C./5% CO2 for a week before the luciferase assay.
The cells used for luciferase assay were KCC2 reporter neurons differentiated for 4 weeks, and treated with drug in 96-well format for 2 weeks. Cell density was between 20 k-40 k cells per well.
On the day of the luciferase assay, the cells were washed with PBS for two times, and 100 μl of cell lysis buffer was applied to the washed cells. The cell plates were transferred to a rocker to shake for 10 minutes in order to fully lyse the cells.

human RTT neurons [4] = experiment: mEPSC whole-cell patch-clamp recording in cultured human RTT neurons; type: cell-based; details: cultured human RTT neurons
Excerpt: (§2) Moreover, a reduction in the number or the strength of excitatory glutamatergic synapses in RTT neurons has been observed in postmortem RTT patient brain samples (30), mouse models of RTT (53), and human stem cell-derived RTT neurons (54). Electrophysiology recording was utilized to assess whether KEECs could rescue the deficits in EGABA and excitatory synaptic transmission of RTT neurons. […] We further investigated whether the beneficial effect of KEECs is a direct result of the increases in neuronal KCC2 gene expression. […] Deficits in a number of morphological measurements, including nuclei size and neurite complexity and branching, are hallmarks of RTT neurons (54-56). […] To validate the morphological measurements, electrophysiological measurements of the neuronal membrane capacitance (Cm), an indicator of neuronal cell size (57) that is reduced in RTT neurons, were conducted.
(§3) Functionally mature human neuron cultures were obtained by seeding human WT or isogenic RTT NPCs on a layer of primary mouse astrocyte culture as previously described (57). In the cultured WT human neurons, KCC2 expression reaches mature level between 2-3 months (7). We therefore treated the WT or RTT human neurons 8-12 weeks in culture, with compounds for a duration of two weeks before conducting whole-cell patch-clamp recording. The extracellular bath solution, that perfused the recording chamber, consists of (in mM): 120 NaCl, 30 glucose, 25 HEPES, 5 KCl, 2 CaCl2, 1 MgCl2. The pH was adjusted to 7.3 with NaOH. The high-chloride internal pipette solution consists of (in mM): 147 KCl, 5 Na-phosphocreatine, 2 EGTA, 10 HEPES, 4 MgATP, and 0.5 Na2GTP; the pH 7.3 was adjusted with KOH. To record mini EPSC, the membrane potential was held at −70 mV, and 0.5 μM of TTX and 50 μM Picrotoxin were applied with bath solution to block action potential and GABAergic synaptic transmission.
To evoke GABA response, a pipette filled with 100 μM GABA solution was positioned 5-10 μm away from the neuronal cell body. Air pulses at the pressure of 10 p.s.i. and duration of 100 ms were generated with a Picrospritzer (Parker Instrumentation) to puff GABA solution onto neuronal cell body. Neuronal response to GABA puffs were recorded at different membrane holding potentials from −90 mV to +30 mV, and the EGABA values were calculated with linear regression. Electrophysiological signals were recorded with Multiclamp 700A patch-clamp amplifier and data were collected with Clamp 9 software (Molecular Devices, Palo Alto, CA), sampled at 10 kHz and filtered at 1 KHz. Off-line data analyses of mEPSC synaptic events were performed with MiniAnalysis software (Synaptosoft, Decator, GA). All experiments were performed at room temperature. A sample size of 5-8 neurons was used for EGABA measurements, while a sample size of 14-19 neurons was used for mEPSC measurements. All data were presented as mean±SEM. ANOVA test followed by the Bonferroni correction were used for statistical analysis. The Kolmogorov-Smirnov test was employed to compare the cumulative distribution between two datasets.

KCC2 expression [5] = experiment: Western blot of KCC2 in organotypic mouse brain slices; type: cell-based; details: organotypic neonatal mouse brain slices, treated 7 days, vs DMSO, MeBIO or medium-only control
human RTT neurons [6] = experiment: Membrane capacitance (Cm) of cultured human RTT neurons; type: cell-based; details: cultured human RTT neurons; vs DMSO or MeBIO control
Excerpt: as §2, §3

[7] = system: KCC2 expression (KCC2-2A-luciferase reporter); experiment: KCC2-2A-luciferase reporter compound screening with wild type KCC2 reporter neurons; type: cell-based; details: WT human KCC2 reporter neurons; LINCS 0.5 μM, IRSF/SMART and ICCB 10 μM, one week; Luc/CTG normalized to in-plate DMSO; hit = B score >3
Excerpt: In addition, CRISPR/Cas9 genome editing technology was utilized to insert a 2A-luciferase reporter gene directly before the stop codon of the endogenous KCC2 locus in human ES cells, thus creating wild type (WT) cells isogenic to the MECP2-null RTT human KCC2 reporter neurons. KCC2 expression reporter human neurons were differentiated from the gene-targeted ES cells and utilized as the substrate for unbiased compound screening (FIG. 6A; see also FIG. 1A).
Gene-targeted KCC2 reporter cells were used in a HTS pipeline to screen for small molecule compounds that enhance KCC2 gene expression (FIG. 1B; note that reporter neurons were adapted to 384 well format for some screens, and the same workflow was used both for WT KCC2 reporter neurons and RTT KCC2 reporter neurons). Six replicate screens were performed in WT KCC2 reporter neurons using the LINCS and SMART libraries as well as the ICCB known bioactive library (FIG. 6B).
as §1
For some screens, on the day of the luciferase assay, the cells were washed with PBS three times using a BioTek EL406 plate washer. Cell lysis buffer (Promega, E1941, 1:5 diluted with water) was added at a volume of 100 μl per well for 96-well plates and 30 μl per well for 384-well plates, and incubated at room temperature for 10 minutes to lyse the cells. A fraction of the cell lysate (30 ul for 96-well, 5 ul for 384-well) was transferred to a new white, opaque plate and Cell Titer-Glo (CTG, Promega, G7572, diluted 2:5 in water) was added and incubated for 20 minutes at room temperature. CTG measures cellular ATP levels as a surrogate for cell viability. The reporter luciferase signal was assayed in the original source plate using Bright-Glo reagent per the manufacturer's protocol (Promega, E1501, 10 ul for 96-well plates, 3 ul for 384-well plates). Assay readouts were performed on a Tecan M1000 Infinite plate reader. For data analysis, the luciferase signal was normalized to the CTG signal to control for number of live cells per well. The Luc/CTG ratio data were then normalized to the in-plate DMSO control to calculate the signal induction fold change. Screening data were processed with CellHTS2 software package to calculate B-score (94)

Nc1cccc(-c2cc3c(Oc4cccc(O)c4)ncnc3[nH]2)c1 [TWS-119, 3-[6-(3-Amino-phenyl)-7H-pyrrolo[2,3,-d]pyrimidin-4-yloxy]-phenol]
increase of KCC2 expression (KCC2 expression [1]; WT neurons, 0.03 μM): more than two-fold
EGABA after treatment (immature mouse neurons; DIV6-7 immature mouse neurons, untreated about −50 mV): about −70 mV
significant hyperpolarizing shift in EGABA (immature mouse neurons; DIV6 cultured immature mouse neurons): induces significant hyperpolarizing shift in EGABA
KCC2 expression (KCC2 expression [2]): significant increase in KCC2 expression
B Score [3]: 3.64

CN1C(=O)/C(=C2\Nc3ccccc3\C2=N/O)c2ccc(Br)cc21 [MeBIO]
KCC2 expression (KCC2 expression [1]; cultured WT human neurons (WIBR1), Western blot): failed to activate KCC2 expression
frequency of mEPSCs (human RTT neurons [4]): failed to rescue synaptic deficits in RTT neurons
KCC2 protein level (KCC2 expression [5]): does not alter KCC2 expression
membrane capacitance (Cm) (human RTT neurons [6]): failed to change Cm

COC1=CC(=O)O[C@@H](/C=C/c2ccc3c(c2)OCO3)C1 [Methysticin, (2R)-2-[(E)-2-(1,3-Benzodioxol-5-yl)ethenyl]-4-methoxy-2,3-dihydropyran-6-one]
B Score [7]: 7.17
B Score [3]: 7.17

O=c1cc(-c2ccccc2)oc2c(O)c(O)ccc12 [7,8-Dihydroxyflavone]
B Score [7]: 4.01
B Score [3]: 4.01

CC(C)(O)[C@H]1O[C@H]2CC[C@@]3(C)[C@@](O)(CC[C@H]4Cc5c([nH]c6ccccc56)[C@@]43C)C2=CC1=O [Paxilline, (2R,4bS,6aS,12bS,12cR,14aS)-5,6,6a,7,12,12b,12c,13,14,14a-Decahydro-4b-hydroxy-2-(1-hydroxy-1-methylethyl)-12b,12c-dimethyl-2H-pyrano[2″,3″:5',6']benz[1',2':6,7]indeno[1,2-b]indol-3(4bH)-one]
B Score [7]: 4.1
B Score [3]: 4.1
